Measurements published in patent US20060292244A1, “Use of pvp-iodine liposomes for treatment of acne” (priority 2003, published 2006).

Tested on: Human ciliated epithelium cells
Test: in-vitro ciliary activity / ciliary vibration test
Format: cell-based
Description: 1 test substance at a temperature of 37° C.

ciliary activity / ciliary vibration: decrease
SMILES: N=C(NCCCCCCNC(=N)NC(=N)Nc1ccc(Cl)cc1)NC(=N)Nc1ccc(Cl)cc1 [chlorohexidine solution, chlorohexidine]
